From ChEMBL document CHEMBL1201862, “PubChem BioAssay data set” (2004)
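48-hour exposure; five concentrations; linearly interpolated endpoints. GI50 is the concentration that inhibits growth by half.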 Calls of active or inactive are those of the source. Cut-off read from the data, not from the text of the source: active = GI50 up to about 1.1 µM and inactive = higher.

What was measured:
Test in all cases: NCI anticancer screen, dose series, 48 h
786-0 = tested on: 786-0
A498 = tested on: A498
A549 = tested on: A549
ACHN = tested on: ACHN
BT-549 = tested on: BT-549
CAKI-1 = tested on: CAKI-1
CCRF-CEM = tested on: CCRF-CEM
COLO 205 = tested on: COLO 205
DU-145 = tested on: DU-145
EKVX = tested on: EKVX
HCC 2998 = tested on: HCC 2998
HCT-116 = tested on: HCT-116
HCT-15 = tested on: HCT-15
HL-60 = tested on: HL-60
HOP-62 = tested on: HOP-62
HOP-92 = tested on: HOP-92
HT-29 = tested on: HT-29
Hs-578T = tested on: Hs-578T
IGROV-1 = tested on: IGROV-1
K562 = tested on: K562
KM12 = tested on: KM12
LOX IMVI = tested on: LOX IMVI
M14 = tested on: M14
MCF7 = tested on: MCF7
MDA-MB-231 = tested on: MDA-MB-231
MDA-MB-435 = tested on: MDA-MB-435
MDA-N = tested on: MDA-N
MOLT-4 = tested on: MOLT-4
Malme-3M = tested on: Malme-3M
NCI-H226 = tested on: NCI-H226
NCI-H23 = tested on: NCI-H23
NCI-H460 = tested on: NCI-H460
NCI-H522 = tested on: NCI-H522
NCI/ADR-RES = tested on: NCI/ADR-RES
OVCAR-3 = tested on: OVCAR-3
OVCAR-4 = tested on: OVCAR-4
OVCAR-5 = tested on: OVCAR-5
OVCAR-8 = tested on: OVCAR-8
PC-3 = tested on: PC-3
RPMI-8226 = tested on: RPMI-8226
RXF 393 = tested on: RXF 393
SF-268 = tested on: SF-268
SF-295 = tested on: SF-295
SF-539 = tested on: SF-539
SK-MEL-28 = tested on: SK-MEL-28
SK-MEL-2 = tested on: SK-MEL-2
SK-MEL-5 = tested on: SK-MEL-5
SK-OV-3 = tested on: SK-OV-3
SN12C = tested on: SN12C
SNB-19 = tested on: SNB-19
SNB-75 = tested on: SNB-75
SR = tested on: SR
SW-620 = tested on: SW-620
T47D = tested on: T47D
TK-10 = tested on: TK-10
U-251 = tested on: U-251
UACC-257 = tested on: UACC-257
UACC-62 = tested on: UACC-62
UO-31 = tested on: UO-31

CCCCCCCCCCCOCCC1C(C(C)OCCN2CCCC2)OC2OC(C)(C)OC21 (stereo not drawn)
GI50 (786-0): 2.62 µM (inactive)
GI50 (A498): 13 µM (inactive)
GI50 (A549): 4.82 µM (inactive)
GI50 (ACHN): 4.63 µM (inactive)
GI50 (BT-549): 3.13 µM (inactive)
GI50 (CAKI-1): 2.4 µM (inactive)
GI50 (CCRF-CEM): 3.6 µM (inactive)
GI50 (COLO 205): 1.92 µM (inactive)
GI50 (DU-145): 5.43 µM (inactive)
GI50 (EKVX): 4.47 µM (inactive)
GI50 (HCC 2998): 1.69 µM (inactive)
GI50 (HCT-116): 1.82 µM (inactive)
GI50 (HCT-15): 2.04 µM
GI50 (HL-60): 1.11 µM (active)
GI50 (HOP-62): 1.91 µM (inactive)
GI50 (HOP-92): 1.82 µM (inactive)
GI50 (HT-29): 1.82 µM (inactive)
GI50 (Hs-578T): 2.68 µM (inactive)
GI50 (IGROV-1): 2.42 µM (inactive)
GI50 (K562): 2.25 µM (inactive)
GI50 (KM12): 0.681 µM (active)
GI50 (LOX IMVI): 1.46 µM (inactive)
GI50 (M14): 0.869 µM (active)
GI50 (MCF7): 2.65 µM (inactive)
GI50 (MDA-MB-231): 1.85 µM (inactive)
GI50 (MDA-MB-435): 1.89 µM (inactive)
GI50 (MDA-N): 1.95 µM (inactive)
GI50 (MOLT-4): 1.68 µM (inactive)
GI50 (Malme-3M): 1.6 µM (inactive)
GI50 (NCI-H226): 8.79 µM (inactive)
GI50 (NCI-H23): 3.91 µM (inactive)
GI50 (NCI-H460): 2.07 µM (inactive)
GI50 (NCI-H522): 0.853 µM (active)
GI50 (NCI/ADR-RES): 3.41 µM (inactive)
GI50 (OVCAR-3): 4.95 µM (inactive)
GI50 (OVCAR-4): 3.98 µM (inactive)
GI50 (OVCAR-5): 3.67 µM (inactive)
GI50 (OVCAR-8): 3.13 µM (inactive)
GI50 (PC-3): 1.97 µM (inactive)
GI50 (RPMI-8226): 2.07 µM (inactive)
GI50 (RXF 393): 2.39 µM (inactive)
GI50 (SF-268): 4.59 µM (inactive)
GI50 (SF-295): 2.32 µM (inactive)
GI50 (SF-539): 2.07 µM (inactive)
GI50 (SK-MEL-28): 1.64 µM (inactive)
GI50 (SK-MEL-2): 1.76 µM (inactive)
GI50 (SK-MEL-5): 1.82 µM (inactive)
GI50 (SK-OV-3): 4.24 µM (inactive)
GI50 (SN12C): 2.53 µM (inactive)
GI50 (SNB-19): 5.56 µM (inactive)
GI50 (SNB-75): 2.47 µM (inactive)
GI50 (SR): 0.46 µM (active)
GI50 (SW-620): 1.78 µM (inactive)
GI50 (T47D): 2.24 µM (inactive)
GI50 (TK-10): 2.37 µM (inactive)
GI50 (U-251): 2.24 µM (inactive)
GI50 (UACC-257): 1.98 µM (inactive)
GI50 (UACC-62): 1.81 µM (inactive)
GI50 (UO-31): 2.51 µM (inactive)

O=C1C2=C(C(=O)c3c(O)ccc(O)c31)[C@@H](O)[C@@H](O)[C@@H](O)C2
GI50 (786-0): 2.02 µM (inactive)
GI50 (A498): 7.05 µM (inactive)
GI50 (A549): 3.21 µM (inactive)
GI50 (ACHN): 2.52 µM (inactive)
GI50 (BT-549): 1.43 µM (inactive)
GI50 (CAKI-1): 1.37 µM (inactive)
GI50 (CCRF-CEM): 0.0486 µM (active)
GI50 (COLO 205): 0.0741 µM (active)
GI50 (DU-145): 2.72 µM (inactive)
GI50 (EKVX): 2.77 µM (inactive)
GI50 (HCC 2998): 7.33 µM (inactive)
GI50 (HCT-116): 0.47 µM (active)
GI50 (HCT-15): 2.76 µM
GI50 (HL-60): 0.635 µM (active)
GI50 (HOP-62): 3.97 µM (inactive)
GI50 (HOP-92): 1.34 µM (inactive)
GI50 (HT-29): 1.32 µM (inactive)
GI50 (Hs-578T): 3.72 µM (inactive)
GI50 (IGROV-1): 2.75 µM (inactive)
GI50 (K562): 2.77 µM (inactive)
GI50 (KM12): 4.46 µM (inactive)
GI50 (LOX IMVI): 2 µM (inactive)
GI50 (M14): 1.86 µM (inactive)
GI50 (MCF7): 1.11 µM (active)
GI50 (MDA-MB-231): 2.14 µM (inactive)
GI50 (MDA-MB-435): 1.57 µM (inactive)
GI50 (MDA-N): 1.49 µM (inactive)
GI50 (MOLT-4): 2.94 µM (inactive)
GI50 (Malme-3M): 1.14 µM (inactive)
GI50 (NCI-H226): 15.1 µM (inactive)
GI50 (NCI-H23): 1.96 µM (inactive)
GI50 (NCI-H460): 4.71 µM (inactive)
GI50 (NCI-H522): 0.367 µM (active)
GI50 (NCI/ADR-RES): 2.66 µM (inactive)
GI50 (OVCAR-3): 0.504 µM (active)
GI50 (OVCAR-4): 1.93 µM (inactive)
GI50 (OVCAR-5): 7.96 µM (inactive)
GI50 (OVCAR-8): 2.31 µM (inactive)
GI50 (PC-3): 2.66 µM (inactive)
GI50 (RPMI-8226): 1.02 µM (active)
GI50 (RXF 393): 1.85 µM (inactive)
GI50 (SF-268): 2.78 µM (inactive)
GI50 (SF-295): 7.24 µM (inactive)
GI50 (SF-539): 3.71 µM (inactive)
GI50 (SK-MEL-28): 2.26 µM (inactive)
GI50 (SK-MEL-2): 1.73 µM (inactive)
GI50 (SK-MEL-5): 1.74 µM (inactive)
GI50 (SK-OV-3): 18.2 µM (inactive)
GI50 (SN12C): 2.01 µM (inactive)
GI50 (SNB-19): 13.1 µM (inactive)
GI50 (SNB-75): 3.43 µM (inactive)
GI50 (SR): > 100 µM (inactive)
GI50 (SW-620): 0.681 µM (active)
GI50 (T47D): 1.1 µM (active)
GI50 (TK-10): 1.52 µM (inactive)
GI50 (U-251): 4.82 µM (inactive)
GI50 (UACC-257): 0.957 µM (active)
GI50 (UACC-62): 3.52 µM (inactive)
GI50 (UO-31): 4.66 µM (inactive)
